Key:
[1] = Undesirable side effects of daily doses in human subjects; assay type: in vivo; conditions: daily dose of about 20 μg compared with about 40 μg
Method: (§1) Therefore, for reducing risk on cancer in men or women with hPTH(1-34) according to the present invention, preferably one should use a daily dose greater than about 6 μg, more preferably at least about 15 μg. […] Therefore, any daily dose of hPTH(1-34) in the range of greater than about 6 μg to at least about 40 μg would be effective for reduction of the risk of cancer, according to the present method of using this form of parathyroid hormone. […] Accordingly, the present invention provides a method for reducing the risk of cancer in a human subject at risk thereof, comprising administering to the subject a parathyroid hormone. Preferably, the parathyroid hormone consists of amino acid sequence 1-34 of human parathyroid hormone. This hormone may be administered with or without concurrent administration of an antiresorptive agent other than vitamin D or calcium. Preferably, the hormone is administered in a daily dose in the range of about 15 μg to about 40 μg, for at least about 12 months. In this method for reducing the risk of cancer, the hormone may be administered for longer periods of several years (e.g., up to 3 years as in osteoporotic patients), including for the remaining life of a human subject identified as having a high risk of cancer.

[2] = system: biochemical bone markers; experiment: Applicant's dose studies in human subjects: changes in biochemical bone markers; assay type: in vivo
Method: as §1

[3] = Effectiveness of daily doses against osteoporosis in men and women; assay type: in vivo, human; conditions: daily doses of 20 μg and 40 μg compared
[4] = system: detectable tumors; experiment: Clinical trial of rhPTH(1-34) in postmenopausal women: incidence of cancer (patients with detectable tumors); assay type: in vivo, human; conditions: for number of patients with detectable tumors, breast carcinoma: 17-23 months, placebo 7; for number of patients with detectable tumors, skin carcinoma: placebo 5; for number of patients with detectable tumors, all cancers except breast carcinoma: placebo 16; for number of patients with detectable tumors, all cancers: placebo 21
Method: • Number of Subjects: rhPTH(1-34): 1093 enrolled, 848 finished. • Placebo: 544 enrolled, 447 finished. • Diagnosis and Inclusion Criteria: Women ages 30 to 85 years, postmenopausal for a minimum of 5 years, with a minimum of one moderate or two mild atraumatic vertebral fractures. • Dosage and Administration: Test Product (blinded) • rhPTH(1-34): 20 μg/day, given subcutaneously • rhPTH(1-34): 40 μg/day, given subcutaneously • Reference Therapy (blinded) • Placebo study material for injection • Duration of Treatment: rhPTH(1-34): 17-23 months (excluding 6-month run-in phase) • Placebo: 17-23 months (excluding 6-month run-in phase)
Criteria for Evaluation: Spine x-ray; serum biological markers (calcium, bon-specific alkaline phosphatase, procollagen I carboxy-terminal propeptide); urine markers (calcium, N-telopeptide, free deoxypyridinoline); 1,25-dihydroxyvitanin D; bone mineral density: spine, hip, wrist, and total body; height; population pharmacokinetics; bone biopsy (selected study sites).
Table 1 illustrates data showing the reduction in the number of patients having detectable tumors upon treatment with PTH.

[5] = system: MCF-7; conditions: ER+ breast cancer cell line MCF-7, in vitro; cited from earlier work

Substance: rhPTH(1-34)
- undesirable side effects [1]: fewer undesirable side effects
- lowest tested dose found to be biologically active, as indicated by detectable changes in biochemical bone markers [2]: about 15 μg
- effects on biochemical bone markers ([2]; 6 μg dose): no significant effects
- effectiveness against osteoporosis [3]: similarly effective
- number of patients with detectable tumors, breast carcinoma ([4]; PTH-20 (20 μg/day s.c., N = 541), p=0.017): 1
- number of patients with detectable tumors, skin carcinoma ([4]; PTH-20 (20 μg/day s.c., N = 541), p=0.532): 2
- number of patients with detectable tumors, all cancers except breast carcinoma ([4]; PTH-20 (20 μg/day s.c., N = 541)): 7
- number of patients with detectable tumors, all cancers ([4]; PTH-20 (20 μg/day s.c., N = 541), p=0.03): 8
- number of patients with detectable tumors, breast carcinoma ([4]; PTH-40 (40 μg/day s.c., N = 522), p=0.017): 1
- number of patients with detectable tumors, skin carcinoma ([4]; PTH-40 (40 μg/day s.c., N = 522), p=0.532): 4
- number of patients with detectable tumors, all cancers except breast carcinoma ([4]; PTH-40 (40 μg/day s.c., N = 522)): 10
- number of patients with detectable tumors, all cancers ([4]; PTH-40 (40 μg/day s.c., N = 522), p=0.03): 11
- percentage of patients with any form of detectable cancer ([4]; all PTH-treated patients (20 and 40 μg/day pooled) vs. placebo 3.86%, p=0.03): 1.79%
- percentage of patients with skin carcinoma ([4]; all PTH-treated patients pooled vs. placebo 0.919%, p=0.532): 0.564%
- percentage of patients with breast carcinoma ([4]; all PTH-treated patients pooled vs. placebo 1.29%, p=0.017): 0.188%
- percentage of patients with any form of detectable cancer, excluding breast carcinoma ([4]; all PTH-treated patients pooled vs. placebo 2.94%): 1.60%

Substance: PTHrP: PTH-related peptide/protein
- response of MCF-7 cells to PTHrP [5]: proliferates

Source: US20050192227A1, “Method for reducing the risk of cancer” (priority 1999, published 2005)
